Series [1] is described as follows: 7.3 Pharmacokinetic characterization, single or repeated oral administration, cynomolgus monkeys. The settings on record: cynomolgus monkey, in vivo, PO dosing in NHP. The source says: 7.3 Pharmacokinetic Characterization of Compound A following Single or Repeated Oral Administrations to Male and Female Cynomolgus Monkeys
The objective of this study is to determine the pharmacokinetics of Compound A following single or repeated oral administrations of Compound A in male and female cynomolgus monkeys. The test article will be measured in plasma at selected time points for up to 14 days post dosing.
Formulation: 10% HP-β-CD in water at pH 3.5 (w/v) in water at pH 3.5 (w/v) • Prepare the 10% HP-β-CD vehicle on a (w/v) basis • Add compound with stirring. • Heat to ˜50 C for 10 minutes. […]
LC-MS/MS method development: • 1. A LC-MS/MS method for the quantitative determination of test compound in biological matrix will be developed under non-GLP compliance. • 2. […] N in 1 cassette LC-MS/MS method can be developed for samples coming from different studies as long as these studies belong to same sponsor and the interference among all cassette analytes will be evaluated during the method development. • 5. […] If such kind cassette assay is still requested by the study sponsor, interference between analytes will not be evaluated but the LC separation of those analytes by using a generic method will be tried. […] Biological sample in matrix other than plasma can be diluted with plasma first and then quantified against plasma calibration curve. […]

The nature of series [2]: Solubility in oral dosing vehicle. The series is classed as physicochemical. The settings on record: 10% HP-β-CD vehicle (oral dosing vehicle), aqueous with cosolvent or surfactant or cyclodextrin; 10% HP-β-CD in water at pH 3.5 (w/v), 25 C; read-out: measured solubility. The method, then: Formulation: 10% HP-β-CD in water at pH 3.5 (w/v) in water at pH 3.5 (w/v) • Prepare the 10% HP-β-CD vehicle on a (w/v) basis • Add compound with stirring. • Heat to ˜50 C for 10 minutes. Can also sonicate. • Adjust pH to 3.5. • Heat for another 10-20 minutes at ˜50 C. • Check and adjust the pH as needed. • Expect solution as the measured solubility was 10 mg/mL at 25 C.

Values after ≈ are worked out from the molar mass of the structure shown. Where two headings read alike, the source gives them in different places.

What is called solubility is the concentration that dissolves in the medium under given conditions. With `CC(C)(O)c1cc2nc([C@H]3CC[C@H](CN4CC5(CC(CCNc6cccc7c6C(=O)N(C6CCC(=O)NC6=O)C7=O)C5)C4)CC3)sc2cc1NC(=O)c1cccc(C(F)(F)F)n1` (stereo partly drawn) [Compound A, N-(2-((1r,4r)-4-((6-(2-((2-(2,6-dioxopiperidin-3-yl)-1,3-dioxoisoindolin-4-yl)amino)ethyl)-2-azaspiro[3.3]heptan-2-yl)methyl)cyclohexyl)-5-(2-hydroxypropan-2-yl)benzo[d]thiazol-6-yl)-6-(trifluoromethyl)picolinamide], the Target AUC0-168 exposure range lay within 7 to 18 µM·h in series [1] (schedule D1, D4, read-out: Target exposure Range (Ly10-DHL2) AUC0-168) and 18 to 54 µM·h in series [1] (schedule D1, read-out: Target exposure Range (Ly10-DHL2) AUC0-168). For the same compound, the solubility in series [2] amounted to 10000 µg/mL (≈ 11.5 mM).

(Values after patent US11857535B2, “Methods of treating mutant lymphomas” (Kymera Therapeutics, Inc., priority 2020, dated 2024).)
